According to patent US9446061B2, “Composition containing antibiotics and lysophosphatidylcholine for boosting immunity or treatment of bacterial infections” (priority 2011, dated 2016):

Test system: CPA-CLP sepsis mouse model
Test: Effects of LPC concentrations on mortalities/survivabilities in CPA-CLP sepsis mouse model (SEP008); s.c. 4 times 12-hr intervals from 6 hrs after CLP
Type: in vivo, ICR mice
Protocol: CPA is well known as an immunosuppressive agent. […] Then, the abdomen was closed following the general procedure.
Then, body weight and mortality changes were observed.
In the Sham and CLP control groups, 10 ml/kg of only 5% human serum albumin was subcutaneously dosed at the same intervals.

Lysophosphatidylcholine [LPC]
0%: survivabilities (LPC 1 mpk, Day 4) | survivabilities (LPC 1 mpk, Day 5) | survivabilities (LPC 1 mpk, Day 6) | survivabilities (LPC 1 mpk, Day 7) | survivabilities (LPC 1 mpk, Total) | survivabilities (LPC 2.5 mpk, Day 5) | survivabilities (LPC 2.5 mpk, Day 6) | survivabilities (LPC 2.5 mpk, Day 7) | survivabilities (LPC 2.5 mpk, Total) | survivabilities (LPC 5 mpk, Day 7) | survivabilities (LPC 5 mpk, Total) | survivabilities (LPC 10 mpk, Day 7) | survivabilities (LPC 10 mpk, Total) | survivabilities (LPC 20 mpk, Day 7) | survivabilities (LPC 20 mpk, Total)
0/3: Mortalities (LPC 5 mpk, Day 5)
80%: survivabilities (LPC 2.5 mpk, Day 1) | survivabilities (LPC 20 mpk, Day 2)
100%: survivabilities (LPC 1 mpk, 1st CPA treat) | survivabilities (LPC 1 mpk, 2nd CPA treat) | survivabilities (LPC 1 mpk, At CLP (day 0)) | survivabilities (LPC 2.5 mpk, 1st CPA treat) | survivabilities (LPC 2.5 mpk, 2nd CPA treat) | survivabilities (LPC 2.5 mpk, At CLP (day 0)) | survivabilities (LPC 5 mpk, 1st CPA treat) | survivabilities (LPC 5 mpk, 2nd CPA treat) | survivabilities (LPC 5 mpk, At CLP (day 0)) | survivabilities (LPC 10 mpk, 1st CPA treat) | survivabilities (LPC 10 mpk, 2nd CPA treat) | survivabilities (LPC 10 mpk, At CLP (day 0)) | survivabilities (LPC 20 mpk, 1st CPA treat) | survivabilities (LPC 20 mpk, 2nd CPA treat) | survivabilities (LPC 20 mpk, At CLP (day 0))
90%: survivabilities (LPC 10 mpk, Day 1) | survivabilities (LPC 20 mpk, Day 1)
1/6: Mortalities (LPC 5 mpk, Day 2) | Mortalities (LPC 10 mpk, Day 4)
3/6: Mortalities (LPC 2.5 mpk, Day 3)
2/8: Mortalities (LPC 2.5 mpk, Day 2) | Mortalities (LPC 20 mpk, Day 3)
1/7: Mortalities (LPC 10 mpk, Day 3)
50%: survivabilities (LPC 5 mpk, Day 2) | survivabilities (LPC 10 mpk, Day 4)
1/9: Mortalities (LPC 20 mpk, Day 2)
2/6: Mortalities (LPC 1 mpk, Day 2) | Mortalities (LPC 20 mpk, Day 4)
2/9: Mortalities (LPC 10 mpk, Day 2)
30%: survivabilities (LPC 2.5 mpk, Day 3) | survivabilities (LPC 5 mpk, Day 4) | survivabilities (LPC 5 mpk, Day 5)
about 1 mg/kg: minimal effective dose (CPA-CLP model)
2/10: Mortalities (LPC 2.5 mpk, Day 1)
40%: survivabilities (LPC 1 mpk, Day 2) | survivabilities (LPC 5 mpk, Day 3) | survivabilities (LPC 10 mpk, Day 5) | survivabilities (LPC 20 mpk, Day 4)
20%: survivabilities (LPC 1 mpk, Day 3) | survivabilities (LPC 10 mpk, Day 6) | survivabilities (LPC 20 mpk, Day 5) | survivabilities (LPC 20 mpk, Day 6)
0/10: Mortalities (LPC 1 mpk, 1st CPA treat) | Mortalities (LPC 1 mpk, 2nd CPA treat) | Mortalities (LPC 1 mpk, At CLP (day 0)) | Mortalities (LPC 2.5 mpk, 1st CPA treat) | Mortalities (LPC 2.5 mpk, 2nd CPA treat) | Mortalities (LPC 2.5 mpk, At CLP (day 0)) | Mortalities (LPC 5 mpk, 1st CPA treat) | Mortalities (LPC 5 mpk, 2nd CPA treat) | Mortalities (LPC 5 mpk, At CLP (day 0)) | Mortalities (LPC 10 mpk, 1st CPA treat) | Mortalities (LPC 10 mpk, 2nd CPA treat) | Mortalities (LPC 10 mpk, At CLP (day 0)) | Mortalities (LPC 20 mpk, 1st CPA treat) | Mortalities (LPC 20 mpk, 2nd CPA treat) | Mortalities (LPC 20 mpk, At CLP (day 0))
0/2: Mortalities (LPC 20 mpk, Day 6)
1/10: Mortalities (LPC 10 mpk, Day 1) | Mortalities (LPC 20 mpk, Day 1)
2/2: Mortalities (LPC 1 mpk, Day 4) | Mortalities (LPC 10 mpk, Day 7) | Mortalities (LPC 20 mpk, Day 7)
60%: survivabilities (LPC 1 mpk, Day 1) | survivabilities (LPC 2.5 mpk, Day 2) | survivabilities (LPC 5 mpk, Day 1) | survivabilities (LPC 10 mpk, Day 3) | survivabilities (LPC 20 mpk, Day 3)
significantly increased: survival time (all the five doses of LPC in CPA-CLP mice)
70%: survivabilities (LPC 10 mpk, Day 2)
4/10: Mortalities (LPC 1 mpk, Day 1) | Mortalities (LPC 5 mpk, Day 1)
10/10: Mortalities (LPC 1 mpk, Total) | Mortalities (LPC 2.5 mpk, Total) | Mortalities (LPC 5 mpk, Total) | Mortalities (LPC 10 mpk, Total) | Mortalities (LPC 20 mpk, Total)
0/0: Mortalities (LPC 1 mpk, Day 5) | Mortalities (LPC 1 mpk, Day 6) | Mortalities (LPC 1 mpk, Day 7) | Mortalities (LPC 2.5 mpk, Day 6) | Mortalities (LPC 2.5 mpk, Day 7)
1/5: Mortalities (LPC 5 mpk, Day 3) | Mortalities (LPC 10 mpk, Day 5)
1/4: Mortalities (LPC 5 mpk, Day 4)
2/4: Mortalities (LPC 1 mpk, Day 3) | Mortalities (LPC 10 mpk, Day 6) | Mortalities (LPC 20 mpk, Day 5)
2/3: Mortalities (LPC 2.5 mpk, Day 4) | Mortalities (LPC 5 mpk, Day 6)
10 mg/kg: optimal effective dose (CPA-CLP model)
1/1: Mortalities (LPC 2.5 mpk, Day 5) | Mortalities (LPC 5 mpk, Day 7)
10%: survivabilities (LPC 2.5 mpk, Day 4) | survivabilities (LPC 5 mpk, Day 6)
